Measurements from patent US9102648B1, “Bioavailable diacylhydrazine ligands for modulating the expression of exogenous genes via an ecdysone receptor complex” (Intrexon Corporation, priority 2003, dated 2015).

Legend:
[1] = biological target: GAL4 DBD (1-147)-CfEcR(DEF)/VP16AD-βRXREF-LmUSPEF (Choristoneura fumiferana, UniProt O77240); assay: cell-based; conditions: for Fold Induction, 27-63 Assay, 3.3 uM: 3.3 uM ligand; for Fold Induction, 27-63 Assay, 3.3 uM / Fold Induction, 27-63 Assay, 33 uM: RLU ligand treated / RLU DMSO treated cells; for Fold Induction, 27-63 Assay, 3.3 uM / Fold Induction, 27-63 Assay, 33 uM / EC50: average of two wells; for Fold Induction, 27-63 Assay, 33 uM: 33 uM ligand; for 27-63 assay Rel Max FI: maximum fold induction at any concentration relative to that of GS-E ligand, CHO 27-63 cells; for EC50: read-out: 27-63 assay EC50, CHO 27-63 stable cell line, luciferase reporter
[2] = tested on: mutated ecdysone receptor-based gene switch; assay: In vivo SEAP induction, ligand by IP injection; design: species or system C57BL/6 mouse; conditions: mouse serum
Outline: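 Gene switch plasmids (receptor under CMV promoter) electroporated into quadriceps of C57BL/6 mice; 3 days later ligand given IP at 2.6 μmol or 26 nmol in 50 μL DMSO per mouse. Serum SEAP measured by chemiluminescence 2-11 days after dosing, averaged over four animals, expressed as % of GS™-E ligand induction.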

| SMILES | Fold Induction, 27-63 Assay, 3.3 uM [1] | Fold Induction, 27-63 Assay, 33 uM [1] | 27-63 assay Rel Max FI [1] | EC50 [1] [nM] | Secreted Alkaline Phosphatase (percentage of GS ™-E ligand induction) Day 2 ([2]; IP 2.6 μmol ligand 3 days after electroporation, day 2 after ligand) | Secreted Alkaline Phosphatase (percentage of GS ™-E ligand induction) Day 3 ([2]; IP 2.6 μmol ligand, day 3 after ligand) | Secreted Alkaline Phosphatase (percentage of GS ™-E ligand induction) Day 11 ([2]; IP 2.6 μmol ligand, day 11 after ligand) |
| --- | --- | --- | --- | --- | --- | --- | --- |
| COc1cccc(C(=O)NN(C(=O)c2cccnc2Cl)C(C)(C)C)c1C [RG-100127] | 49 | 1239 | 0.689 | 6700 |  |  |  |
| COc1ccccc1C(=O)N(NC(=O)c1ccc2c(c1C)OCOC2)C(C)(C)C [RG-100216] | 53 | 1312 | 0.685 | 6970 |  |  |  |
| COc1cc(C(=O)N(NC(=O)c2cccc(OC)c2C)C(C)(C)C)ccc1C [RG-100768] | 1738 | 1852 | 1.039 | 333 |  |  |  |
| COc1cc(C)ccc1C(=O)N(NC(=O)c1cccc(OC)c1C)C(C)(C)C [RG-100769] | 1595 | 1556 | 0.735 | 196 |  |  |  |
| CCc1c(OC)cccc1C(=O)NN(C(=O)c1cc(OC)cc(OC)c1)C(C)(C)C [RG-100778] | 2159 | 2312 | 1.342 | 678 |  |  |  |
| CC(C)(C)N(NC(=O)c1c(F)cccc1F)C(=O)c1cc(Cl)cc(Cl)c1 [RG-100801] | 1341 | 1244 | 0.936 | 2080 |  |  |  |
| CC(=O)c1cccc(C(=O)NN(C(=O)c2cc(C)cc(C)c2)C(C)(C)C)c1C [RG-100814] | 2441 | 2165 | 1.157 | 1500 |  |  |  |
| COc1cc(Cl)ccc1C(=O)N(NC(=O)c1cccc(OC)c1C)C(C)(C)C [RG-100848] | 1181 | 1151 | 0.765 | 322 |  |  |  |
| Cc1cc(C)cc(C(=O)N(NC(=O)c2ccc(CC#N)cc2)C(C)(C)C)c1 [RG-100875] | 34 | 1592 | 1.004 | 8920 |  |  |  |
| COc1cccc(C(=O)NN(C(=O)c2ccc(Cl)cc2F)C(C)(C)C)c1C [RG-100929] | 1080 | 988 | 0.770 | 1050 |  |  |  |
| CCc1ccc(C(=O)NN(C(=O)c2ccccc2[N+](=O)[O-])C(C)(C)C)cc1 [RG-101013] | 927 | 988 | 0.606 | 2140 |  |  |  |
| Cc1cc(C)cc(C(=O)N(NC(=O)c2ccc3c(c2)COCO3)C(C)(C)C)c1 [RG-101016] | 308 | 1347 | 0.703 | 4200 |  |  |  |
| CCc1c(C(=O)NN(C(=O)c2cccc(C)c2)C(C)(C)C)ccc2c1OCCO2 [RG-101036] | 1721 | 1459 | 0.724 | 177 |  |  |  |
| CC(C)(C)N(NC(=O)c1ccc2c(c1)OCO2)C(=O)c1ccc(F)cc1Cl [RG-101048] | 19 | 1453 | 0.708 | 8420 |  |  |  |
| COc1ccc(C(=O)NN(C(=O)c2ccc(F)cc2Cl)C(C)(C)C)cc1 [RG-101057] | 30 | 1008 | 0.648 | 6620 |  |  |  |
| Cc1cc(C)cc(C(=O)N(NC(=O)c2cc3c(cc2C)OCO3)C(C)(C)C)c1 [RG-101088] | 6 | 1743 | 1.159 | 9950 |  |  |  |
| Cc1cc(C)cc(C(=O)N(NC(=O)c2cc3c(cc2Cl)OCO3)C(C)(C)C)c1 [RG-101171] | 395 | 1357 | 0.877 | 4020 |  |  |  |
| CCc1c(OC)cccc1C(=O)NN(C(=O)c1ccc(Cl)cc1OC)C(C)(C)C [RG-101218] | 1097 | 1223 | 0.645 | 128 |  |  |  |

| SMILES | Fold Induction, 27-63 Assay, 3.3 uM [1] | Fold Induction, 27-63 Assay, 33 uM [1] | 27-63 assay Rel Max FI [1] | EC50 [1] [nM] | Secreted Alkaline Phosphatase (percentage of GS ™-E ligand induction) Day 2 ([2]; IP 2.6 μmol ligand 3 days after electroporation, day 2 after ligand) | Secreted Alkaline Phosphatase (percentage of GS ™-E ligand induction) Day 3 ([2]; IP 2.6 μmol ligand, day 3 after ligand) | Secreted Alkaline Phosphatase (percentage of GS ™-E ligand induction) Day 11 ([2]; IP 2.6 μmol ligand, day 11 after ligand) |
| --- | --- | --- | --- | --- | --- | --- | --- |
| COc1cccc(C(=O)NN(C(=O)c2cc(C)ccc2Cl)C(C)(C)C)c1Cl [RG-101248] | 146 | 1033 | 0.790 | 5040 |  |  |  |
| Cc1cc(C)cc(C(=O)N(NC(=O)c2ccc3c(c2Br)OCCO3)C(C)(C)C)c1 [RG-101340] | 1624 | 1549 | 0.964 | 240 |  |  |  |
| COc1cccc(C(=O)NN(C(=O)c2cc(C)cc(Br)c2)C(C)(C)C)c1C [RG-101353] | 3583 | 3835 | 1.168 | 266 |  |  |  |
| COc1cccc(C(=O)NN(C(=O)c2cc(Cl)cc(Br)c2)C(C)(C)C)c1C [RG-101408] | 2445 | 1886 | 1.185 | 336 |  |  |  |
| Cc1cc(C)cc(C(=O)N(NC(=O)c2ccc3c(c2)OC(C)O3)C(C)(C)C)c1 (centres unmarked) [RG-101511] | 1421 | 1207 | 0.762 | 714 |  |  |  |
| COc1cc(C(=O)NN(C(=O)c2cc(C)cc(C)c2)C(C)(C)C)ccc1C [RG-101585] | 154 | 1495 | 0.893 | 5060 |  |  |  |
| CCc1c(C(=O)NN(C(=O)c2cc(C)cc(C)c2)C(C)(C)C)ccc2c1OC(C)O2 (centres unmarked) [RG-101659] | 2283 | 1896 | 1.009 | 347 |  |  |  |
| CCc1cccc(C(=O)NN(C(=O)c2cc(C)cc(C)c2)C(C)(C)C)c1C [RG-101691] | 2249 | 2073 | 0.969 | 250 |  |  |  |
| Cc1cc(C)cc(C(=O)N(NC(=O)c2cccc(OC(F)(F)F)c2C)C(C)(C)C)c1 [RG-101692] | 1798 | 591 | 1.008 | 788 |  |  |  |
| CCc1ccc(C(=O)NN(C(=O)c2cc(C)cc(Cl)c2)C(C)(C)C)cc1 [RG-101774] | 1807 | 1359 | 0.795 | 359 |  |  |  |
| CCc1ccc(C(=O)NN(C(=O)c2cc(C)c(C)c(Cl)c2)C(C)(C)C)cc1 [RG-101863] | 1705 | 636 | 1.043 | 1000 |  |  |  |
| CCc1ccc(C(=O)NN(C(=O)c2cc(C)cc(C)c2)C(C)(C)C)cc1Cl [RG-101864] | 1807 | 1464 | 0.750 | 343 |  |  |  |
| Cc1cc(C)cc(C(=O)N(NC(=O)c2ccc3c(c2)CCCC3)C(C)(C)C)c1 [RG-101887] | 1142 | 1107 | 0.675 | 351 |  |  |  |
| C=Cc1c(OC)cccc1C(=O)NN(C(=O)c1cc(C)cc(C)c1)C(C)(C)C [RG-102021] |  | 2951 |  |  |  |  |  |
| CCc1ccc(C(=O)NN(C(=O)c2ccccc2CC)C(C)(C)C)cc1 [RG-102592] | 7 | 1265 | 0.798 | 7770 |  |  |  |
| CCc1ccc(C(=O)NN(C(=O)c2cc(C)cc(C)c2)C(C)C(C)(C)C)cc1 (centres unmarked) [RG-103451] | 3326 | 3865 | 0.884 | 314 | 76 percentage of GS ™-E ligand induction | 73 percentage of GS ™-E ligand induction | 371 percentage of GS ™-E ligand induction |
| COCc1c(OC)cccc1C(=O)NN(C(=O)c1cc(C)cc(C)c1)C(C)(C)C [RG-115117] |  | 221 |  |  |  |  |  |
